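Where inhibition never reached the appropriate level, the endpoint shown equals the highest concentration tested. Otherwise, values were interpolated linearly from a five-concentration, 48-hour dose response in 96-well plates. GI50: concentration for 50% inhibition of growth. The concentration for full growth arrest is given as TGI.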
Experiments:
Assay in all cases: inhibition of tumour cell growth, NCI panel, 48 h; in the data active = GI50 below about 0.43 µM; inactive = the rest
PC-3 prostate = system: PC-3 prostate
UACC-257 melanoma = system: UACC-257 melanoma
OVCAR-4 ovarian = system: OVCAR-4 ovarian
HL-60(TB) leukemia = system: HL-60(TB) leukemia
A549 NSCLC = system: A549 NSCLC
SNB-19 CNS = system: SNB-19 CNS
SK-OV-3 ovarian = system: SK-OV-3 ovarian
EKVX NSCLC = system: EKVX NSCLC
MOLT-4 leukemia = system: MOLT-4 leukemia
NCI/ADR-RES ovarian = system: NCI/ADR-RES ovarian
786-0 renal = system: 786-0 renal
NCI-H23 lung = system: NCI-H23 lung
SF-539 CNS = system: SF-539 CNS
SW-620 colon = system: SW-620 colon
ACHN renal = system: ACHN renal
SF-268 CNS = system: SF-268 CNS
A498 renal = system: A498 renal
M14 melanoma = system: M14 melanoma
HOP-62 NSCLC = system: HOP-62 NSCLC
CCRF-CEM leukemia = system: CCRF-CEM leukemia
OVCAR-8 ovarian = system: OVCAR-8 ovarian
DU-145 prostate = system: DU-145 prostate
RXF 393 renal = system: RXF 393 renal
UACC-62 melanoma = system: UACC-62 melanoma
SN12C renal = system: SN12C renal
MDA-MB-435 = system: MDA-MB-435
BT-549 breast = system: BT-549 breast
MCF7 breast = system: MCF7 breast
MDA-MB-231 breast = system: MDA-MB-231 breast
OVCAR-5 ovarian = system: OVCAR-5 ovarian
RPMI-8226 leukemia = system: RPMI-8226 leukemia
SR leukemia = system: SR leukemia
HS 578T breast = system: HS 578T breast
HT29 colon = system: HT29 colon
NCI-H460 lung = system: NCI-H460 lung
T-47D breast = system: T-47D breast
K-562 leukemia = system: K-562 leukemia
SK-MEL-28 melanoma = system: SK-MEL-28 melanoma
SK-MEL-5 melanoma = system: SK-MEL-5 melanoma
HCT-116 colon = system: HCT-116 colon
KM12 colon = system: KM12 colon
COLO 205 colon = system: COLO 205 colon
UO-31 renal = system: UO-31 renal
NCI-H522 lung = system: NCI-H522 lung
SK-MEL-2 melanoma = system: SK-MEL-2 melanoma
IGROV1 ovarian = system: IGROV1 ovarian
HCC-2998 colon = system: HCC-2998 colon
HOP-92 NSCLC = system: HOP-92 NSCLC
NCI-H226 lung = system: NCI-H226 lung
CAKI-1 renal = system: CAKI-1 renal
U251 CNS = system: U251 CNS
HCT-15 colon = system: HCT-15 colon
OVCAR-3 ovarian = system: OVCAR-3 ovarian
MALME-3M melanoma = system: MALME-3M melanoma
TK-10 renal = system: TK-10 renal
SNB-75 CNS = system: SNB-75 CNS
LOX IMVI melanoma = system: LOX IMVI melanoma
SF-295 CNS = system: SF-295 CNS

Nc1ccc(-c2nnc(SCc3ccc(O)c4ncccc34)n2-c2ccccc2)cc1
6.81 µM: TGI (NCI-H522 lung)
98.8 µM: TGI (MDA-MB-231 breast)
4.84 µM: TGI (SK-MEL-2 melanoma)
> 100 µM: TGI (PC-3 prostate) | TGI (OVCAR-4 ovarian) | TGI (HL-60(TB) leukemia) | TGI (A549 NSCLC) | TGI (SNB-19 CNS) | TGI (EKVX NSCLC) | TGI (MOLT-4 leukemia) | TGI (NCI/ADR-RES ovarian) | TGI (786-0 renal) | TGI (NCI-H23 lung) | TGI (SF-539 CNS) | TGI (SW-620 colon) | TGI (SF-268 CNS) | TGI (HOP-62 NSCLC) | TGI (CCRF-CEM leukemia) | TGI (OVCAR-8 ovarian) | TGI (DU-145 prostate) | TGI (RXF 393 renal) | TGI (SN12C renal) | TGI (MDA-MB-435) | TGI (BT-549 breast) | TGI (MCF7 breast) | TGI (OVCAR-5 ovarian) | TGI (RPMI-8226 leukemia) | TGI (SR leukemia) | TGI (HS 578T breast) | TGI (HT29 colon) | TGI (T-47D breast) | TGI (K-562 leukemia) | TGI (SK-MEL-28 melanoma) | TGI (KM12 colon) | TGI (UO-31 renal) | TGI (IGROV1 ovarian) | TGI (HCC-2998 colon) | TGI (NCI-H226 lung) | TGI (CAKI-1 renal) | TGI (U251 CNS) | TGI (HCT-15 colon)
> 24.6 µM: TGI (A498 renal)
0.0203 µM: TGI (HOP-92 NSCLC)
0.0804 µM: TGI (SK-MEL-5 melanoma)
active: GI50 (PC-3 prostate) 0.017 µM | GI50 (UACC-257 melanoma) 0.0622 µM | GI50 (OVCAR-4 ovarian) 0.0688 µM | GI50 (HL-60(TB) leukemia) 0.0405 µM | GI50 (A549 NSCLC) 0.0403 µM | GI50 (SNB-19 CNS) 0.0323 µM | GI50 (SK-OV-3 ovarian) 0.118 µM | GI50 (EKVX NSCLC) 0.415 µM | GI50 (MOLT-4 leukemia) 0.0485 µM | GI50 (786-0 renal) 0.238 µM | GI50 (NCI-H23 lung) 0.0322 µM | GI50 (SF-539 CNS) 0.048 µM | GI50 (SW-620 colon) 0.0454 µM | GI50 (ACHN renal) 0.0639 µM | GI50 (SF-268 CNS) 0.0452 µM | GI50 (M14 melanoma) 0.0402 µM | GI50 (HOP-62 NSCLC) 0.0661 µM | GI50 (CCRF-CEM leukemia) 0.0368 µM | GI50 (OVCAR-8 ovarian) 0.0387 µM | GI50 (DU-145 prostate) 0.0339 µM | GI50 (RXF 393 renal) 0.0816 µM | GI50 (UACC-62 melanoma) 0.065 µM | GI50 (SN12C renal) 0.0318 µM | GI50 (MDA-MB-435) 0.0321 µM | GI50 (BT-549 breast) 0.0291 µM | GI50 (MCF7 breast) 0.0287 µM | GI50 (MDA-MB-231 breast) 0.0695 µM | GI50 (OVCAR-5 ovarian) 0.29 µM | GI50 (RPMI-8226 leukemia) 0.0244 µM | GI50 (SR leukemia) 0.0441 µM | GI50 (HS 578T breast) 0.0478 µM | GI50 (NCI-H460 lung) 0.019 µM | GI50 (T-47D breast) 0.0735 µM | GI50 (K-562 leukemia) 0.0152 µM | GI50 (SK-MEL-28 melanoma) 0.0724 µM | GI50 (SK-MEL-5 melanoma) 0.0252 µM | GI50 (HCT-116 colon) < 0.0172 µM | GI50 (KM12 colon) 0.0504 µM | GI50 (UO-31 renal) 0.14 µM | GI50 (NCI-H522 lung) 0.0268 µM | GI50 (SK-MEL-2 melanoma) 0.0644 µM | GI50 (IGROV1 ovarian) 0.0497 µM | GI50 (HCC-2998 colon) 0.0583 µM | GI50 (CAKI-1 renal) 0.0627 µM | GI50 (U251 CNS) 0.0254 µM | GI50 (HCT-15 colon) 0.0498 µM
0.911 µM: TGI (SK-OV-3 ovarian)
> 33 µM: TGI (NCI-H460 lung)
4.3 µM: TGI (M14 melanoma)
3.42 µM: TGI (COLO 205 colon)
> 37.4 µM: TGI (HCT-116 colon)
13.2 µM: TGI (UACC-62 melanoma)
inactive: GI50 (NCI/ADR-RES ovarian) 2.29 µM | GI50 (A498 renal) 0.933 µM | GI50 (HT29 colon) 0.89 µM | GI50 (COLO 205 colon) 1.01 µM | GI50 (NCI-H226 lung) 1.15 µM

N/C(=N\c1nc2c(Br)cccc2s1)C(Br)Br
31 µM: TGI (SR leukemia)
12.1 µM: TGI (U251 CNS)
25.8 µM: TGI (OVCAR-5 ovarian)
9.95 µM: TGI (RXF 393 renal)
11.2 µM: TGI (SW-620 colon)
16.6 µM: TGI (OVCAR-3 ovarian)
32 µM: TGI (SK-MEL-5 melanoma)
13.9 µM: TGI (COLO 205 colon)
50.6 µM: TGI (A498 renal)
23.3 µM: TGI (SK-MEL-28 melanoma)
32.2 µM: TGI (TK-10 renal)
26.1 µM: TGI (PC-3 prostate)
9.81 µM: TGI (NCI/ADR-RES ovarian)
11.3 µM: TGI (MCF7 breast)
24.1 µM: TGI (OVCAR-8 ovarian)
36.1 µM: TGI (T-47D breast)
28 µM: TGI (UACC-257 melanoma) | TGI (EKVX NSCLC) | TGI (MDA-MB-231 breast)
active: GI50 (LOX IMVI melanoma) 0.307 µM
27.8 µM: TGI (SNB-19 CNS) | TGI (HOP-62 NSCLC)
35.2 µM: TGI (786-0 renal)
> 100 µM: TGI (HS 578T breast)
8.98 µM: TGI (CAKI-1 renal)
57.5 µM: TGI (HL-60(TB) leukemia)
30.6 µM: TGI (OVCAR-4 ovarian)
12.8 µM: TGI (HT29 colon)
16 µM: TGI (DU-145 prostate)
11.8 µM: TGI (ACHN renal)
22.4 µM: TGI (KM12 colon)
35.4 µM: TGI (SK-OV-3 ovarian)
26.9 µM: TGI (SF-268 CNS)
11.5 µM: TGI (NCI-H460 lung) | TGI (HCT-15 colon)
14.3 µM: TGI (HCC-2998 colon)
1.29 µM: TGI (LOX IMVI melanoma)
16.4 µM: TGI (RPMI-8226 leukemia)
34.7 µM: TGI (SK-MEL-2 melanoma)
13.7 µM: TGI (MDA-MB-435)
29.4 µM: TGI (HOP-92 NSCLC)
16.8 µM: TGI (HCT-116 colon)
52.7 µM: TGI (K-562 leukemia)
20.2 µM: TGI (UO-31 renal)
15 µM: TGI (SF-539 CNS)
29.9 µM: TGI (BT-549 breast)
27.3 µM: TGI (MOLT-4 leukemia)
29.8 µM: TGI (SN12C renal)
22.1 µM: TGI (SNB-75 CNS)
31.6 µM: TGI (IGROV1 ovarian)
38.6 µM: TGI (NCI-H226 lung)
21.7 µM: TGI (NCI-H522 lung)
28.1 µM: TGI (M14 melanoma)
21.9 µM: TGI (A549 NSCLC)
24.4 µM: TGI (MALME-3M melanoma)
24.3 µM: TGI (UACC-62 melanoma)
25.9 µM: TGI (SF-295 CNS)
inactive: GI50 (PC-3 prostate) 8.68 µM | GI50 (UACC-257 melanoma) 13.5 µM | GI50 (OVCAR-4 ovarian) 6.21 µM | GI50 (HL-60(TB) leukemia) 7.38 µM | GI50 (OVCAR-3 ovarian) 4.19 µM | GI50 (A549 NSCLC) 7.76 µM | GI50 (SNB-19 CNS) 10.4 µM | GI50 (SK-OV-3 ovarian) 10.8 µM | GI50 (EKVX NSCLC) 11.4 µM | GI50 (MOLT-4 leukemia) 3.9 µM | GI50 (MALME-3M melanoma) 8.53 µM | GI50 (TK-10 renal) 15.9 µM | GI50 (NCI/ADR-RES ovarian) 2.58 µM | GI50 (786-0 renal) 13.1 µM | GI50 (SF-539 CNS) 3.7 µM | GI50 (SW-620 colon) 2.26 µM | GI50 (ACHN renal) 2.98 µM | GI50 (SF-268 CNS) 4.67 µM | GI50 (A498 renal) 21.5 µM | GI50 (M14 melanoma) 10.4 µM | GI50 (HOP-62 NSCLC) 10.5 µM | GI50 (OVCAR-8 ovarian) 8.18 µM | GI50 (DU-145 prostate) 3.84 µM | GI50 (RXF 393 renal) 2.74 µM | GI50 (UACC-62 melanoma) 6.63 µM | GI50 (SN12C renal) 11.7 µM | GI50 (MDA-MB-435) 3.22 µM | GI50 (BT-549 breast) 11.2 µM | GI50 (MCF7 breast) 2.25 µM | GI50 (SNB-75 CNS) 10.2 µM | GI50 (MDA-MB-231 breast) 5.51 µM | GI50 (OVCAR-5 ovarian) 12 µM | GI50 (RPMI-8226 leukemia) 2.97 µM | GI50 (SR leukemia) 4.68 µM | GI50 (HS 578T breast) 7.24 µM | GI50 (HT29 colon) 2.91 µM | GI50 (NCI-H460 lung) 2.55 µM | GI50 (T-47D breast) 10.3 µM | GI50 (K-562 leukemia) 2.66 µM | GI50 (SK-MEL-28 melanoma) 11.1 µM | GI50 (SK-MEL-5 melanoma) 17.5 µM | GI50 (HCT-116 colon) 2.27 µM | GI50 (KM12 colon) 4.29 µM | GI50 (COLO 205 colon) 3.49 µM | GI50 (UO-31 renal) 5.69 µM | GI50 (SF-295 CNS) 10.6 µM | GI50 (NCI-H522 lung) 6.16 µM | GI50 (SK-MEL-2 melanoma) 15.4 µM | GI50 (IGROV1 ovarian) 10.4 µM | GI50 (HCC-2998 colon) 3.62 µM | GI50 (HOP-92 NSCLC) 6.07 µM | GI50 (NCI-H226 lung) 11.3 µM | GI50 (CAKI-1 renal) 2.1 µM | GI50 (U251 CNS) 2.83 µM | GI50 (HCT-15 colon) 2.57 µM

Reference: PubChem BioAssay (NCI)
